Here are results for two compounds from paper PMC5018819 (Scientific Reports, 2016).

Experiment [1] has as its target T1, PfEK (Plasmodium falciparum, UniProt Q8IIB7).
T1 sequence (Q8IIB7 2-420): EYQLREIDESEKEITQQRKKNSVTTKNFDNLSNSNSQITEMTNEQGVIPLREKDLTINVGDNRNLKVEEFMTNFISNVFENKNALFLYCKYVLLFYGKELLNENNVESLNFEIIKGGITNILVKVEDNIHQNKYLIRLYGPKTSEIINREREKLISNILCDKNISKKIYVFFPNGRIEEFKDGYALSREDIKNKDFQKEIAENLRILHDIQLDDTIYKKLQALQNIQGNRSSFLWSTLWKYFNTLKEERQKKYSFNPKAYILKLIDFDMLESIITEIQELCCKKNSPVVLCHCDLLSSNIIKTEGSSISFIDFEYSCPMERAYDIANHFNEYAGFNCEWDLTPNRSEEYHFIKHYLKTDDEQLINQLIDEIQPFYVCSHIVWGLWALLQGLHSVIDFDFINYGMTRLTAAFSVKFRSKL
The experiment can be described thus: IC50 determination, spectrophotometric EK enzyme assay. Conditions: for IC50: Etn as substrate, 0.5 mM each substrate. Format: biochemical, P. falciparum. Here is the method: (§1) A continuous spectrophotometric 96-well plate assay was established for CK and EK activity based on an assay described. […] The reaction was initiated by addition of enzyme or substrate, as appropriate, and the rate of reaction was monitored by following the decrease in absorbance at 341 nm for 10 min at room temperature using a Thermo Multiska spectrophotometer. Experiments were carried out to ensure that coupling enzymes were not rate-limiting under any of the conditions used and control experiments lacking substrates and/or enzyme were carried out to correct for any background rate.
(§2) The enzyme was pre-incubated for 5 min with varying concentrations of inhibitor prior to reaction being started by addition of 0.5 mM each substrate. The IC50 values were estimated using Grafit 5 (Erithacus Software Ltd).

Experiment [2] relates to P. falciparum 3D7. The experiment can be described thus: ES-MS and ES-MS-MS lipidomic analysis of treated parasites. Format: cell-based, Plasmodium falciparum. The conditions noted are these: EC90 for 3 h; for effect on level of PC species: parents of 184 m/z spectra; for effect on endogenous PE species (in words): quantitative lipidomic analysis. Here is the method:
After washing, P. falciparum trophozoites were cultured for 18h without inhibitors, collected, treated with saponin to release the parasites from the red blood cells, and washed twice with PBS prior to Bligh & Dyer lipid extraction. Briefly, 5 × 10^8 parasite cells were dissolved in 375 μl 1:2 (v/v) chloroform:methanol and vigorously vortexed for 15 min. 125 μl of chloroform were added and 500 pmols of 1,2-dimyristoyl-sn-glycero-3-phosphocholine and 1,2-dipalmitoyl-sn-glycero-3-phosphoethanolamine were included in each sample as internal controls. 125 μl of water were added to the sample, vortexed and centrifuged at ×1000 g (RT) for 5 min to make the sample biphasic. Lower organic phase was collected and upper (aqueous) phase was re-extracted twice with 125 μls of chloroform. Lipid extracts were pooled, dried under nitrogen and stored at 4 °C for ESI-MS/MS analysis.
Lipid extracts, were dissolved in 15 μl of choloroform:methanol (1:2) and 15 μl of acetonitrile:iso-propanol:water (6:7:2) and analysed with a Absceix 4000 QTrap, a triple quadrupole mass spectrometer equipped with a nanoelectrospray source. Samples were delivered using a Nanomate interface in direct infusion mode (~125 nl/min). The lipid extracts were analysed in both positive and negative ion modes using a capillary voltage of 1.25 kV. MS/MS scanning (daughter, precursor and neutral loss scans) were performed using nitrogen as the collision gas with collision energies between 35–90 V. Each spectrum encompasses at least 50 repetitive scans. Tandem mass spectra (MS/MS) were obtained with collision energies between 35–90 V. Assignment of phospholipid and neutral lipid species is based upon a combination of survey, daughter, precursor and neutral loss scans, as well previous assignments. The identity of phospholipid peaks was verified using the LIPID MAPS: Nature Lipidomics Gateway (www.lipidmaps.org).

The test system of experiment [3] is P. falciparum. More on the design: method as in PMID 25089811. Conditions: blood stages of the parasite, in vitro; read-out: IC50 against P. falciparum; cited from earlier work.
The target in experiment [4] is T2, HsCKα1 (Homo sapiens, UniProt P35790).
T2 construct: made in house
The experiment can be described thus: Kd by tryptophan fluorescence quenching. Format: binding. Conditions: 25 °C, enzyme 1 μM. On the procedure:
(§3) Compounds BR23 and BR25 were prepared in 100% DMSO. The Kds for compounds BR23 and BR25 against HsCKα1 and PfCK were measured by monitoring the quenching of tryptophan fluorescence. All experiments were carried out in a Cary Eclipse spectrofluorometer at 25 °C with the enzymes at 1 μM, and concentrations of compounds varying from 0.05 to 8 μM for HsCKα1, and from 0.05 to 16 μM for PfCK in 25 mM Tris, 150 mM NaCl, pH 7.5. Fluorescence emission spectra were recorded in the 300–400 nm range with an excitation wavelength of 280 nm, with slit width of 5 nm. Controls were determined by incubating the enzymes with equivalent amounts of DMSO. As indicated previously, data analysis was performed in Prism (GraphPad software) considering a model with a single binding site (Eq. 1), where F0 is the intrinsic fluorescence of the enzyme in the absence of quencher (Q), F1 is the observed fluorescence at a given quencher concentration, fa is the fractional degree of fluorescence, and Kd is the dissociation constant.

Experiment [5] deals with T3, PfCK (Plasmodium falciparum, UniProt Q8IM71).
T3 construct: made in house
T3 sequence (Q8IM71 1-440): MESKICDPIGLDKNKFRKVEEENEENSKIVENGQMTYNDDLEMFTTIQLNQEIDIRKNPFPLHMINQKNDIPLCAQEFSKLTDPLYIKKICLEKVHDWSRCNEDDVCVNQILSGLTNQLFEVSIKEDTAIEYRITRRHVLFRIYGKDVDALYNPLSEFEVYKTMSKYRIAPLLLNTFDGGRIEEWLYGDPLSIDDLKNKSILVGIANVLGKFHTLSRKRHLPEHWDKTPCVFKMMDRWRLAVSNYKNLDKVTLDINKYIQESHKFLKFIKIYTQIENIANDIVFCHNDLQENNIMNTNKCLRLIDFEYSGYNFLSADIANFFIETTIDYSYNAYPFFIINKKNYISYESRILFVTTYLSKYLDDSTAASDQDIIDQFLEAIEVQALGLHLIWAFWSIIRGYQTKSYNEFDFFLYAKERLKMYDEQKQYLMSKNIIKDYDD
The experiment can be described thus: Kd by tryptophan fluorescence quenching. The conditions noted are these: for Kd: tryptophan fluorescence quenching, 25 °C, enzyme 1 μM. Format: binding. On the procedure: as §3

The target of experiment [6] is T2, HsCKα1. In words: IC50 determination, spectrophotometric CK/EK enzyme assay. Format: biochemical. The conditions noted are these: 0.5 mM each substrate. On the procedure: as §1, §2
For experiment [7], the target named is T3, PfCK. Described as above. Format: biochemical. Conditions: for IC50: 0.5 mM each substrate. On the procedure:
as §1, §2

[8] abbreviates: Etn as substrate, read-out: IC50 HsCK, Etn.
The mark [9] stands for this setting: read-out: IC50 HsCK, Cho, Cho as substrate.
Setting [10] is: Etn as substrate, read-out: IC50 PfCK, Etn.
The mark [11] stands for this setting: read-out: IC50 PfCK, Cho, Cho as substrate.

Where two headings read alike, the source gives them in different places.

T2 sequence (P35790 whole entry): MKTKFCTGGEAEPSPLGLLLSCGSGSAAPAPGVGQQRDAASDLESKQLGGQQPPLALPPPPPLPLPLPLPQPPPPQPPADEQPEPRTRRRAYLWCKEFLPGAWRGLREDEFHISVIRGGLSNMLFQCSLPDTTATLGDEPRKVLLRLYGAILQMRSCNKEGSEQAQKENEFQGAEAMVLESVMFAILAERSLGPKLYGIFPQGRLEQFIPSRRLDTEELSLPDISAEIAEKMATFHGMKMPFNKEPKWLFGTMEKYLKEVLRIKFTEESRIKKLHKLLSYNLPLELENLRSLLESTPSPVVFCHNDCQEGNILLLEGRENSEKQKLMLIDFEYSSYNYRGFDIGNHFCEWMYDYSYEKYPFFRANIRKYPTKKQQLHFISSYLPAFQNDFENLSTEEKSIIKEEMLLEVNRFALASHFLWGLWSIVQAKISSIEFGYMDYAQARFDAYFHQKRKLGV

For the compound `CN(C)c1cc[n+](Cc2ccc(CCCCc3ccc(C[n+]4ccc(N5CCCC5)cc4)cc3)cc2)cc1.[Br-].[Br-]` [BR25], the “inhibition towards PfEK (in words)” value in experiment [1] is “neither BR23 nor BR25 showed any inhibition”. Besides, the IC50 is > 500 µM in experiment [1]; 2 nM in experiment [3]; 180 nM in experiment [6] (setting [8]); 560 nM in experiment [6] (setting [9]); 6 µM in experiment [7] (setting [10]); 103 µM in experiment [7] (setting [11]). The “effect on level of PC species” value in experiment [2] was “do not affect”. Moreover, in experiment [2], the “effect on endogenous PE species (in words)” value is given as “almost complete loss”. Moreover, the Kd in experiment [4] was 352 ± 20 nM; in experiment [5] it was 415 ± 81 nM. In addition, the “affinity for PfCK relative to BR23” value in experiment [5] (ratio of Kds) is listed as 3 fold. In addition, in experiment [7] (Cho as substrate), the “inhibition towards PfCKs choline kinase activity (in words)” value was “moderate inhibition”.

Regarding `CN(C)c1cc[n+](Cc2ccc(-c3ccc(C[n+]4ccc(N5CCCC5)cc4)cc3)cc2)cc1.[Br-].[Br-]` [BR23], the “inhibition towards PfEK (in words)” value in experiment [1] is listed as “neither BR23 nor BR25 showed any inhibition”. The concentration for half-maximal inhibition (IC50) is > 500 µM in experiment [1]; 3 nM in experiment [3]; 230 nM in experiment [6] (setting [8]); 580 nM in experiment [6] (setting [9]); 12 µM in experiment [7] (setting [10]); 276 µM in experiment [7] (setting [11]). The “reduction of endogenous PE species” value in experiment [2] (ES-MS-MS parents of 196 m/z, internal PE standard) is > 90%. Further, the “effect on level of PC species” value in experiment [2] was “do not affect”. Besides, the “effect on endogenous PE species (in words)” value in experiment [2] is given as “significant reduction”. Moreover, the Kd was determined as 521 ± 200 nM in experiment [4] and 1400 nM in experiment [5]. Further, in experiment [7] (Cho as substrate), the “inhibition towards PfCKs choline kinase activity (in words)” value is “moderate inhibition”.

The term IC50 denotes the midpoint of a concentration-inhibition curve. A word on the Kd: it is a measure of binding affinity in units of concentration. A high value points to a looser complex.
